Results from patent publication US6342519B2, “Oxetanone derivatives” (2 Pro Chemical, priority 1999, dated 2002).

Experiments:
[1] = molecular target: T1, Pork Pancreas Lipase [EC 3.1.1.3] (Sus scrofa, UniProt P00591); assay: Lipase inhibition assay, Lipase #2 solution (Aldrich Pork Pancreas Lipase); type: biochemical; conditions: Lipase #2 (pork pancreas lipase), 20 mL of compound stock solution in 0.2 N HCl, Sigma Lipase Substrate, pH about 8, 30 minutes, 35-37° C., titration with 0.025 N NaOH, two runs
T1 construct: purchased Aldrich Product No. 32313; host or cells: pork pancreas
T1 sequence (P00591 1-450): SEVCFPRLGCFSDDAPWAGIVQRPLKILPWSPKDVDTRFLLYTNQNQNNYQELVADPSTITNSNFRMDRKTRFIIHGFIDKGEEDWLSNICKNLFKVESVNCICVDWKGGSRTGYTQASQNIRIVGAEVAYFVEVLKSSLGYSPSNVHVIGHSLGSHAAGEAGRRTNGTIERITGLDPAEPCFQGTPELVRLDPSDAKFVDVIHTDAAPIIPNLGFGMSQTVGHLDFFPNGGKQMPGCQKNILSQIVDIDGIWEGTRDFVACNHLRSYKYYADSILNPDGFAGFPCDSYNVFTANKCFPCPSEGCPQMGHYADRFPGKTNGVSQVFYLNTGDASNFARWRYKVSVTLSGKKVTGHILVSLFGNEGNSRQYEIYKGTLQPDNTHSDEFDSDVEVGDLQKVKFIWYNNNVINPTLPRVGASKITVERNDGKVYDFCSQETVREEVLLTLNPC
Procedure: (§1) Lipase inhibition assays were performed essentially as follows using each of Compounds A and B.
(§2) A 1 L stock solution of 1N NaOH was made and a 500 mL stock solution of 0.025 N NaOH was made by diluting a portion of the stock 1N solution. Also a stock solution of 0.2 N HCl was made. A 100 mL TRIZMA solution (from Aldrich Lipase Assay Kit Cat. No. 800B) was diluted with 100 mL of denatured EtOH and 300 mL of water to form a 500 mL TEW solution. Compound A from Example 6 (100 mg) was added to a portion of the 0.2 N HCl stock solution and diluted to a final volume of 300 mL with the same HCl stock solution to form a compound A stock solution. […]
(§3) In a 500 mL beaker equipped with a heat source and a magnetic stirrer was added 100 mL of distilled water, 10 mL of TEW solution, 10 mL of Sigma Lipase Substrate and a 20 mL sample (sample control was 20 mL of the stock 0.2 N HCl solution, sample A was 20 mL of the compound A stock solution, and sample B was 20 mL of the compound B stock solution). The pH was adjusted to about 8 with 1N NaOH using a pH meter, whose reading was noted and recorded as a baseline reading after the pH adjustment. […] The volume of NaOH solution used to return to the baseline pH reading was noted and recorded. […]

[2] = Oil binding assay with olive oil and food-coloured water; type: physicochemical; conditions: for oil binding, observation: olive oil/substance 1.5/1 ratio by weight, then 4 mL of water with food coloring
Procedure: Oil binding assay were performed using each of Compounds A and B using the procedures essentially as follows.
Six controls were obtained by adding Star Brand Olive Oil (extra virgin light colored olive oil) to 4 or 7 mL sample bottles, which were photographed at a distance of 10 inches by using an IZONE POLAROID camera as follows.
For comparison with Control 4 (oil/chitosan 1.5/1 ratio) each of Compounds A and B were mixed with oil in the same ratio(oil/compound 1.5/1 ratio, green food coloring was added to the aqueous portion of the compound A sample bottle and blue food coloring was added to the aqueous portion of the compound B sample bottle).
For comparison with Control 6 (oil/chitosan 8:1 ratio and 1 mL of aqueous solution with food coloring), compound B was added to 8 times its weight of oil and stirred to a uniform consistency. The 1 mL of water was added and 5 drops of red food coloring were added.

human lipase = molecular target: T2, human lipase (Homo sapiens, UniProt P16233); assay: Lipase inhibition assay, Lipase #1 solution (Aldrich Lipase PS Standard); type: biochemical; conditions: Lipase #1 (human lipase), 20 mL of compound stock solution in 0.2 N HCl, Sigma Lipase Substrate, pH about 8, 30 minutes, 35-37° C., titration with 0.025 N NaOH, two runs
T2 construct: purchased Aldrich Product No. 8054
T2 sequence (P16233 17-465): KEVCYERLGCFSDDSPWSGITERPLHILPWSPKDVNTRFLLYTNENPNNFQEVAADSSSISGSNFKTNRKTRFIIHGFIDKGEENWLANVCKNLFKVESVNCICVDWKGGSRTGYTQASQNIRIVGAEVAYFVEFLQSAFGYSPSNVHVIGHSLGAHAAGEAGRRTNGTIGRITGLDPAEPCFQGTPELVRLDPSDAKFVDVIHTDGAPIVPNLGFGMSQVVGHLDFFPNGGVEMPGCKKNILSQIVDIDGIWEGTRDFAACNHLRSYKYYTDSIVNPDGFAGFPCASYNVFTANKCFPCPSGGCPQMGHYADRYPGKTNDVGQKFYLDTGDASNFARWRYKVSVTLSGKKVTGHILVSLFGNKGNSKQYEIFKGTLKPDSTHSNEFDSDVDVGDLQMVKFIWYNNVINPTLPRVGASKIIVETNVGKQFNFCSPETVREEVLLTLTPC
Procedure: as §1, §2, §3

[3] = system: absorption of dietary fat; conditions: 120 mg dose taken before, or up to one hour after, a fat-containing meal; average person; cited from earlier work

| Compound | percent inhibition with respect to the control [1] | oil binding, observation [2] | percent inhibition with respect to the control (human lipase) | water absorbed after binding oil ([2]; olive oil/compound 8:1, 1 mL of water) | tightness of oil binding compared with chitosan and compound A ([2]; olive oil/substance 1.5/1 ratio) | oil binding and water uptake, observation ([2]; olive oil/substance 8:1 ratio by weight, then 1 mL of water and 5 drops of red food coloring) | share of the fat eaten at a given meal that is not absorbed [3] |
| --- | --- | --- | --- | --- | --- | --- | --- |
| 2S, 3S, 4S [2-{(hexanoic acid modified chitosan 6-hexanoylamido}-4-methylvaleryloxy]-2-hexyl-hexadecanoic 1,3-lactone [Compound A] | about 50% | oil is bound tightly at the bottom of the bottle and there is substantially no floating oil | about 50% | – | – | – | – |
| 4-[{(hexanoic acid modified chitosan 6-hexanoyloxy}-2-hexyl-hexadecanoic 1,3-lactone [Compound B] | about 50% | oil is bound tightly at the bottom of the bottle and there is substantially no floating oil | about 50% | at least its weight in water | appeared to perhaps bind the oil more tightly than either chitosan or compound A | uniformly absorbed the 1 mL of aqueous food coloring solution to form a homogenous layer which was present even after 24 hours | – |
| CCCCCCCCCCC[C@@H](C[C@@H]1OC(=O)[C@H]1CCCCCC)OC(=O)[C@H](CC(C)C)NC=O [Orlistat, (2S,3S,5S)-5-[(S)-2-formamido-4-methyl-valeryloxy]-2-hexyl-3-hydroxy-hexadecanoic 1,3 acid lactone] | – | – | – | – | – | – | up to one-third |
